The nature of the data set: Cytotoxicity activity against human HepG2 cells assessed by CellTiter-Glo luminescent cell viability assay. Format: toxicity, cell-based. Details: assay stage confirmatory assay, source tissue liver. The settings on record: HepG2 cells, read-out: IC50 relative. Background: In ATP-based viability assays light output follows the ATP content of the culture.

The structures appear in SMILES notation. Calls of active or inactive are those of the source. No rule for the calls is given here.

As for `COc1ccc(-c2noc(N3CCC(C(=O)N4CCN(c5ccccc5OC)CC4)CC3)n2)cc1`, the CC50 was 8 µM (active).
For `COc1ccc(CNC(=O)C2CCN(S(=O)(=O)c3ccc4c(c3)CC(C)N4C(C)=O)CC2)cc1` (stereo not drawn) the value was 29.7 µM (inactive).
Under `CC(=O)N1CCCc2cc(S(=O)(=O)N3CCCC(C(=O)N4CCN(c5ccccc5)CC4)C3)ccc21` (stereo not drawn) stands 12.7 µM (inactive); under `CCOc1ccc(S(=O)(=O)Nc2ccc3c(c2)N(C(C)=O)CCC3)cc1`, 6.4 µM (active); under `COc1ccc(-c2noc(N3CCC(C(=O)NCCCN4CCC(C)CC4)CC3)n2)cc1`, 19.2 µM (inactive).
Under `CCc1ccc(-c2cc3c(=O)n(CC(=O)NCCCN4CCN(CC)CC4)nc(C)n3n2)cc1` stands 25.5 µM (inactive); under `Cc1cc(Br)cc(C)c1OCCCCN(C)C`, 9.8 µM (active); under `CCN(CC)CCNC(=O)C1CCN(c2nn3cc(-c4ccc(F)cc4)nc3s2)CC1`, 2 µM (active).
As to `COc1ccc(Nc2nc(NCCCO)c3ccccc3n2)cc1`, the CC50 is 8.2 µM (active).
Turning to `Cc1cccc(NC(=O)C2CCN(S(=O)(=O)c3cn(C(C)C)cn3)CC2)c1`, the CC50 is 8.8 µM (inactive).
Consider `COc1ccc(-c2cc3c4nn(CC(=O)Nc5ccccc5)c(=O)n4ccn3n2)cc1`, for which the CC50 was 50 µM (inactive).
Under `COc1ccc(-c2cc3c4nn(CC(=O)Nc5cccc(OC)c5)c(=O)n4ccn3n2)cc1` stands 50 µM (inactive); under `COc1cccc(N2CCN(C(=O)C3CCN(c4nc5cccnc5n(C)c4=O)CC3)CC2)c1`, 4.4 µM (active).
Under `O=S1(=O)C[C@H](NC2CCCC2)[C@@H](S(=O)(=O)c2cccs2)C1` stands 16.1 µM (active); under `CC(=O)Nc1ccc(Nc2nc(C)cc(N3CCCC3)n2)cc1`, 10.2 µM (active); under `O=C(c1ccc(F)cc1)N1CCN(Cc2noc(-c3ccc(F)cc3)n2)CC1`, 5.8 µM (active).
Under `COc1ccc(C(=O)N2CCN(Cc3noc(-c4ccc(F)cc4)n3)CC2)cc1` stands 4.5 µM (active); under `CC(=O)N1c2ccc(S(=O)(=O)N3CCOCC3)cc2CC1C(=O)NCCN1CCCCCC1` (stereo not drawn), 50 µM (inactive).
In the case of `CCn1c(=O)c(C(=O)Nc2cccc(OC)c2)c(O)c2ccccc21`, the CC50 is 2.4 µM (inactive).
Under `CCN1C(=O)COc2ccc(NC(=O)c3cc(-c4ccc5c(c4)OCCO5)on3)cc21` stands 50 µM (inactive); under `CCOc1ccc(C(=O)N2CCN(Cc3noc(-c4ccc(F)cc4)n3)CC2)cc1`, 4.8 µM (active).
For `COc1ccc(-c2cn3nc(N4CCCC(C(=O)NCCN5CCCC5)C4)sc3n2)cc1` (stereo not drawn) the value was 5.1 µM (active); for `Cc1ccc(-c2noc(-c3cccc(OCC(=O)N4CCN(C)CC4)c3)n2)cc1`, 6.3 µM (active).
Take `COc1ccc(OCC(=O)N2CCN(S(=O)(=O)c3ccc4c(c3)NC(=O)C(C)O4)CC2)cc1` (stereo not drawn): the CC50 is 5.8 µM (active).
In the case of `O=S1(=O)C[C@H](NC2CCCCC2)[C@@H](S(=O)(=O)c2ccc(Cl)cc2)C1`, the CC50 is 17 µM (active).
For `O=C(NCCN1CCCC1)C1CCN(c2nn3cc(-c4ccc(F)cc4)nc3s2)CC1` the value was 2.7 µM (active).
For `CCN(CC)CCCNC(=O)C1CCN(c2nc3ccccc3n(Cc3ccccc3)c2=O)CC1` the value was 6.4 µM (active); for `Cc1cccc(Cl)c1OCCN(C)CC1(C)COC1`, 50 µM (inactive); for `Cc1cccc(NC(=O)C2CCN(S(=O)(=O)c3ccc4c(c3)CC(C)N4C(=O)C3CC3)CC2)n1` (stereo not drawn), 1.7 µM (active).
Under `CCOc1ccccc1NC(=O)COc1cccc2c(=O)n(C)ccc12` stands 1.4 µM (inactive).
With `Cc1ccc(-c2cc3c(=O)n(CC#N)ccn3n2)cc1`, the CC50 was 0.3 µM (active).
For `CN1CCCC(CNc2ccc3cc(Cl)ccc3n2)C1` (stereo not drawn) the value was 7.9 µM (active); for `CCOc1ccc(-n2ccnc(NCc3ccc(OC)c(OC)c3)c2=O)cc1`, 5.1 µM (active); for `Cc1ccc(-c2cn3nc(N4CCC(C(=O)NCCCN5CCOCC5)CC4)sc3n2)cc1`, 5.1 µM (active).
For `CCCCC(=O)Nc1ccc(Nc2nc(C)cc(N3CCOCC3)n2)cc1` the value was 10.1 µM (active); for `CC(=O)N1c2ccc(S(=O)(=O)N3CCC(C(=O)NCc4cccs4)CC3)cc2CC1C` (stereo not drawn), 33.9 µM (inactive).
For `Cc1ccc(-c2cnn3c(N4CCN(CCO)CC4)cc(C)nc23)cc1` the value was 8.9 µM (active).
Take `Cc1cc2c(cc1S(=O)(=O)Nc1cccc(F)c1)OCC(=O)N2`: the CC50 was 28.3 µM (inactive).
Under `CC(=O)N1CCCSc2ccc(S(=O)(=O)N3CCN(c4ccc(F)cc4)CC3)cc21` stands 7.5 µM (active); under `CCCN1C(=O)COc2ccc(-c3csc(NC(=O)CC(C)C)n3)cc21`, 18 µM (inactive).
For `CCCCOc1cccc(C(=O)Nc2nc3c(s2)CN(C)CC3)c1` the value was 7.9 µM (active); for `CCN1CCN(C(=O)C2CCCN(c3nn4cc(-c5ccc(OC)cc5)nc4s3)C2)CC1` (stereo not drawn), 12.8 µM (active).
Turning to `CC1Oc2ccc(S(=O)(=O)N3CCN(C(=O)c4ccc(Br)cc4)CC3)cc2NC1=O` (stereo not drawn), the CC50 was 4 µM (active).
For `CCCN1CCN(CCCNC(=O)C2CCN(c3nc(-c4ccc(OC)cc4)no3)CC2)CC1`, the CC50 was 13 µM (active).
Under `CCN(CC)CCNC(=O)C1CCN(c2nn3cc(-c4ccc(OC)cc4)nc3s2)CC1` stands 2.7 µM (active).
Under `CN(C)CCNc1oc(-c2ccc(S(=O)(=O)N3CCCCCC3)cc2)nc1C#N` stands 18 µM (inactive); under `CC(NC(=O)N(C)CC1CCOCC1)c1ccccc1C(F)(F)F` (stereo not drawn), 50 µM (inactive).
For `CC1Oc2ccc(S(=O)(=O)N3CCN(C(=O)c4ccc(Cl)cc4)CC3)cc2NC1=O` (stereo not drawn) the value was 6.6 µM (active); for `O=C(NCCCN1CCOCC1)C1CCN(c2nn3cc(-c4ccc(F)cc4)nc3s2)CC1`, 5.8 µM (active).
Regarding `CCCCN[C@H]1CS(=O)(=O)C[C@@H]1S(=O)(=O)c1ccc(Cl)cc1`, the CC50 was 9.3 µM (active).
Regarding `COCC(=O)Nc1ccc(Nc2nc(C)cc(N3CCCC3)n2)cc1`, the CC50 is 3.6 µM (active).
For `COc1cccc(NC(=O)Nc2nc3ccc(S(C)(=O)=O)cc3s2)c1` the value was 18.1 µM (inactive).
For the compound `CCS(=O)(=O)c1ncc(Cl)c(C(=O)Nc2ccc(OC)cc2)n1`, the CC50 was 2.6 µM (active).
Under `CCNc1cc(C)nc(Nc2ccc(NC(=O)CC(C)C)cc2)n1` stands 11 µM (active); under `CCc1ccc(-c2cc3c(=O)n(CC(=O)NCCN(CC)CC)ncn3n2)cc1`, 6.2 µM (active).
Under `O=C(CN1C(=O)COc2ccc(S(=O)(=O)N3CCCC3)cc21)N1CCN(Cc2ccccc2)CC1` stands 50 µM (inactive).
Under `Cc1cccnc1C(NC(=O)CCOc1ccccc1)C1CC1` (stereo not drawn) stands 36.5 µM (inactive).
For the compound `Cc1cc(N(C)C)nc(N2CCN(C(=O)c3ccc(C(C)(C)C)cc3)CC2)n1`, the CC50 was 5.1 µM (active).
For `CCc1ccc(-c2cc3c(=O)n(CC(=O)NCCCN4CCCC4)nc(C)n3n2)cc1` the value was 11.4 µM (active).
As for `O=S1(=O)C[C@H](NC2CCCC2)[C@@H](S(=O)(=O)c2ccc(Cl)cc2)C1`, the CC50 is 12.1 µM (active).
Under `O=C(CN1C(=O)COc2ccc(S(=O)(=O)N3CCCCCC3)cc21)NCc1ccccc1` stands 50 µM (inactive).
For `CCN1CCN(CCCNC(=O)c2cccc(NC(=O)c3nnc(COc4ccccc4)s3)c2)CC1` the value was 6.9 µM (active); for `Cc1ccc(S(=O)(=O)NCCCNC(=O)c2c3c(nn2C)CCCC3)cc1`, 4.6 µM (active).
As to `CCN(CC)CCCNC(=O)C1CCN(c2nn3cc(-c4ccc(OC)cc4)nc3s2)CC1`, the CC50 is 3 µM (active).
On to `COc1ccc2c(c1)C=C(C(=O)NCc1ccc(OC)c(OC)c1)CO2`, for which the CC50 is 6.3 µM (active).
Turning to `CC(=O)N1c2ccc(S(=O)(=O)N3CCC(C(=O)N4CC=C(c5ccccc5)CC4)CC3)cc2CC1C` (stereo not drawn), the CC50 was 6.8 µM (active).
For `O=C(Nc1ccncc1)c1cccn(Cc2cccc(F)c2)c1=O` the value was 6.1 µM (active).
For `CCCc1cc(C(=O)NCC2CN(C3CCN(C4CCC4)CC3)C(=O)CO2)n(C)n1` (stereo not drawn) the value was 50 µM (inactive); for `O=C(NCCN1CCOCC1)C1CCN(c2nn3cc(-c4ccc(F)cc4)nc3s2)CC1`, 10.5 µM (active).
Under `CC(=O)N1CCSc2ccc(S(=O)(=O)N3CCN(Cc4ccc5c(c4)OCO5)CC3)cc21` stands 6.4 µM (active).
Turning to `O=C(c1csc(S(=O)(=O)N2CCC(C(=O)N3CCc4ccccc43)CC2)c1)N1CCCCCC1`, the CC50 is 10.6 µM (inactive).
In the case of `COc1ccc(-c2cn3nc(N4CCC(C(=O)NCCCN5CCN(C)CC5)CC4)sc3n2)cc1`, the CC50 is 4.1 µM (active).
For `CC1(C)Cc2c(sc(NC(=O)NCc3cccnc3)c2C(N)=O)CO1` the value was 12.4 µM (inactive); for `CCC(=O)Nc1ccc(Nc2nc(C)cc(N(CC)CC)n2)cc1`, 4.5 µM (active).
Regarding `COCCCN[C@H]1CS(=O)(=O)C[C@@H]1S(=O)(=O)c1ccc(Cl)cc1`, the CC50 is 16.7 µM (active).
For `Cc1ccc(Nc2nc(N3CCN(CCO)CC3)nc3c2cnn3C)cc1Cl` the value was 4.8 µM (active); for `CN(C)CCOc1ccc2ccccc2c1Br`, 12 µM (active).
For `Cc1nn2c(ncc3c(=O)n(CCN(C)C)ccc32)c1-c1ccc(Cl)cc1` the value was 4 µM (active); for `COc1ccc(-c2cc(C(=O)N3CCCCC3C)n[nH]2)cc1S(=O)(=O)N1CCCCC1` (stereo not drawn), 20.2 µM (inactive); for `CCc1nc(-c2cc(S(=O)(=O)N3CCCC(C(=O)N4CCC(C)CC4)C3)c(C)s2)no1` (stereo not drawn), 7.9 µM (active).
As to `CC(C)OCCCN[C@H]1CS(=O)(=O)C[C@@H]1S(=O)(=O)c1ccc(Cl)cc1`, the CC50 was 16 µM (active).
For `CCCC(=O)Nc1ccc(Nc2nc(C)cc(N3CCCC3)n2)cc1` the value was 5.7 µM (active); for `COc1cccc(Nc2nc(N3CCN(C)CC3)nc3c2cnn3C)c1`, 14 µM (inactive).

The values above are taken from ChEMBL document CHEMBL5303711, “ECBD screening data for assay EOS300108” (2023).
